From paper PMC5945515, “Measuring glucocorticoid receptor expression in vivo with PET” (Oncotarget, 2018)
pKd: −log10 of the molar value. Read-outs that look alike come from different tables or passages of the source.

Assays:
huAR = huAR (Homo sapiens, UniProt P10275); test: Competition binding assay on cells, human AR
Protocol: (§1) The KD for subfamily 3 group C nuclear hormone receptors was determined on cells by displacing ^3H-steroidal agonists for the respective receptor. […].
(§2) The cold ligands and ^3H-steroids were co-incubated on cells in PBS at room temperature for one hour. Following incubation, the cells were washed twice with ice cold PBS and the unbound activity was retained for analysis. The cells were lysed with 1 mL of 1 M NaOH and collected. Bound and unbound fractions were counted in a liquid scintillation counter and expressed as a percentage of the total activity added per equal relative number of cells. […]. The specific binding component was plotted against the log of the competing ligand and curve fit using a non-linear regression algorithm with PRISM software.

[1] = Log P determination (octanol:water); format: physicochemical; conditions: octanol:water 1:1 v/v
Protocol: To a microcentrifuge tube containing 1 mL of octanol:water (1:1 v/v) was added 50 μL of ^18F-GR02 (total activity = 37 MBq). The solution was vortexed vigorously for 30 sec, and the biphasic layers were allowed to separate. The layers were manually pipetted into new microcentrifuge tubes, and the activity of each fraction was read with a dose calibrator. The water fraction contained 1.7 MBq, and the octanol fraction contained 35.3 MBq.

mouse GR = target: T1, mouse GR (Mus musculus, UniProt P06537); test: Competition binding assay on cells, mouse GR; conditions: GL261 cells, displacing 3H-dexamethasone; read-out: KD msGR
T1 construct: endogenous in cells; host or cells: GL261
T1 sequence (P06537 1-792): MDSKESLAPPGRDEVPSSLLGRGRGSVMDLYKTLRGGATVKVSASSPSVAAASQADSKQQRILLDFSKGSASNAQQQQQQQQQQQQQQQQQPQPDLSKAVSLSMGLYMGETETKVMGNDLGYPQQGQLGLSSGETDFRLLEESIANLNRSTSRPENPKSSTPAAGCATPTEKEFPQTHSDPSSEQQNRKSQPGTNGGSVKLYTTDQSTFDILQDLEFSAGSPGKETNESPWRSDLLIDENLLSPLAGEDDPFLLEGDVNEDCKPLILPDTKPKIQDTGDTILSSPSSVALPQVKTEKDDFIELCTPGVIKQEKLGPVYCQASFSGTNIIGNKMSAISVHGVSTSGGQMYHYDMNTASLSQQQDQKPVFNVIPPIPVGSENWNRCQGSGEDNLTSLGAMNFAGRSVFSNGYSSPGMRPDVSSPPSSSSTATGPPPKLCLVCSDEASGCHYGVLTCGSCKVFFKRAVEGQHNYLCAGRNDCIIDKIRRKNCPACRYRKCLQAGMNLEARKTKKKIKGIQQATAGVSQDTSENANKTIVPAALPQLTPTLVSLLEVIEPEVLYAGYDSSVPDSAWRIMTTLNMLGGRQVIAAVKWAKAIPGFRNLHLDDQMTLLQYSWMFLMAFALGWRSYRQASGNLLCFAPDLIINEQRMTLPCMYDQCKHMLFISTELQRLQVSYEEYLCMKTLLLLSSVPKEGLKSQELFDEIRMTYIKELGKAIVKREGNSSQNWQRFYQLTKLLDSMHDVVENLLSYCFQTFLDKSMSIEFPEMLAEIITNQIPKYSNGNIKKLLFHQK
Protocol: as §1, §2

human GR = target: T2, human GR (Homo sapiens, UniProt P04150); test: Competition binding assay on cells, human GR
T2 construct: PC3 and DU145, two human prostate cancer models with endogenous GR expression; endogenous in cells; host or cells: DU145
T2 sequence (P04150 1-777): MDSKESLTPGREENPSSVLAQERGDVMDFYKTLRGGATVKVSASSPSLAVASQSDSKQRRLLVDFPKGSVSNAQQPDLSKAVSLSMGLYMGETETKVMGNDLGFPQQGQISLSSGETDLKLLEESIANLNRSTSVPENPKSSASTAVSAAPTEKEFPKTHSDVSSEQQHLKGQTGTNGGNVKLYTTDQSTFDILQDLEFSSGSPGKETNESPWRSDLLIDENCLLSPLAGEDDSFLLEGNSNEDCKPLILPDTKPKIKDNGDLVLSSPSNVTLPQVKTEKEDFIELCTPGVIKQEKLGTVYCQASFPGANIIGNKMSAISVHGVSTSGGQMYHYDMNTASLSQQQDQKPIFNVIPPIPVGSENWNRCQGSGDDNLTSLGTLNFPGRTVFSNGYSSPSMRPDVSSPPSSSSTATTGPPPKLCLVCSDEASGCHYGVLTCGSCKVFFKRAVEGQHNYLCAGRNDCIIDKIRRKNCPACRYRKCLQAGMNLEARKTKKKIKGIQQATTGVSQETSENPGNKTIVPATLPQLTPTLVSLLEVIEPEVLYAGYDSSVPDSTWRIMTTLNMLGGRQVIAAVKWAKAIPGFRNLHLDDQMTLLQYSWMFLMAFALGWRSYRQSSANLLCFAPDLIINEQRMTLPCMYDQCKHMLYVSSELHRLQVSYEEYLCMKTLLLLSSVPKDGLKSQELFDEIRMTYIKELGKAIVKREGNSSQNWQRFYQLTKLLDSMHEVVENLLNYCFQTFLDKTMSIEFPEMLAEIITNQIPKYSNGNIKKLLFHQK
Protocol: The KD for subfamily 3 group C nuclear hormone receptors was determined on cells by displacing ^3H-steroidal agonists for the respective receptor.
The cold ligands and ^3H-steroids were co-incubated on cells in PBS at room temperature for one hour. Following incubation, the cells were washed twice with ice cold PBS and the unbound activity was retained for analysis. The cells were lysed with 1 mL of 1 M NaOH and collected. Bound and unbound fractions were counted in a liquid scintillation counter and expressed as a percentage of the total activity added per equal relative number of cells. […] The specific binding component was plotted against the log of the competing ligand and curve fit using a non-linear regression algorithm with PRISM software.

[2] = DU145 cells, displacing 3H-dexamethasone, read-out: KD huGR

huAR, sequence (P10275 whole entry): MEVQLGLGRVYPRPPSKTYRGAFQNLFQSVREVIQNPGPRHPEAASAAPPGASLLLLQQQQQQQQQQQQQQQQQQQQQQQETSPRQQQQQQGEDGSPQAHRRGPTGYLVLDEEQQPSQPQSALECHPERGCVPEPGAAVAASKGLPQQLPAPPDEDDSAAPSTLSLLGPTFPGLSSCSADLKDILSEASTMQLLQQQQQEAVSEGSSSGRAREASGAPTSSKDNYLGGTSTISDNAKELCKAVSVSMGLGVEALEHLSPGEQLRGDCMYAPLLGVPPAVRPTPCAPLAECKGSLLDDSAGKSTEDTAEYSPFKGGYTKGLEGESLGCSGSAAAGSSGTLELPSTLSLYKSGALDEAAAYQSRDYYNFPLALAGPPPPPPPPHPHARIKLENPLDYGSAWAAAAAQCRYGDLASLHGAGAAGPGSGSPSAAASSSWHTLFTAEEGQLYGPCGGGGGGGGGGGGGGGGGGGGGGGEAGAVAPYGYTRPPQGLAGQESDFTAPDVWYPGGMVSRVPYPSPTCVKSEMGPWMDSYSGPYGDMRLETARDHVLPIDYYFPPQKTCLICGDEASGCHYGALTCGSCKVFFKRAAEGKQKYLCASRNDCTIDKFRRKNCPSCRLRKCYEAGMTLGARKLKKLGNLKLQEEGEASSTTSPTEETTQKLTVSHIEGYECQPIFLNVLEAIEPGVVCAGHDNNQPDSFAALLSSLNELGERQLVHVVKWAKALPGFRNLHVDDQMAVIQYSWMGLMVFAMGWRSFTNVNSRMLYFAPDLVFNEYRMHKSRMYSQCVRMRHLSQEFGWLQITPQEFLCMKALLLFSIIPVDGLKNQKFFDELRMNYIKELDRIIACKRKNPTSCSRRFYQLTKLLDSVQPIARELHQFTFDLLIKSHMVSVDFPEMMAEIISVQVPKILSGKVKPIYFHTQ

## C[C@]12C=CC(=O)C=C1CCC1C2[C@@H](O)C[C@@]2(C)C1CC[C@]2(O)C(=O)CNC(=O)c1ccc(F)cc1 (stereo partly shown) [GR02]
huAR
  pKd: 5.90
[1]
  logP: 1.33
Mouse GR
  pKd: 8.17
Human GR; [2]
  pKd: 7.80

## C[C@]12C=CC(=O)C=C1CCC1C2[C@@H](O)C[C@@]2(C)C1CC[C@]2(O)C(=O)COCCCF (stereo partly shown) [GR01]
huAR
  pKd: 5.84
Human GR; [2]
  pKd: 8.41
Human GR; Supplementary Table 1, read-out: KD for human GR
  pKd: 8.42
